From patent US20250296971A1, “GASTRIC INHIBITORY PEPTIDE RECEPTOR LIGANDS” (priority 2021, published 2025)
*1 amine or outer side, *2 acyl side, *3 side chain or, on linkers, in order; H or OH if unused. Where a SMILES comes first, the peptide text is derived from it. Bridges are numbered along the chain shown (N, C = ends). [ ]: non-standard residue; d: D form. Trp(5-Cl) = N[C@@H](Cc1c[nH]c2ccc(Cl)cc12)C(=O)O; Pyridine(2,6-diCH2) = c1cc(C[*:1])nc(C[*:2])c1; Cya = N[C@@H](CS(=O)(=O)O)C(=O)O; Hyp = O=C(O)[C@@H]1C[C@@H](O)CN1; hSer = N[C@@H](CCO)C(=O)O; Thp = NC1(C(=O)O)CCOCC1

Molecular target: T1, GIPR (CHO-K1-hGIPR cells) (Homo sapiens, UniProt P48546)
T1 construct: host or cells: CHO-K1
T1 sequence (P48546 22-466): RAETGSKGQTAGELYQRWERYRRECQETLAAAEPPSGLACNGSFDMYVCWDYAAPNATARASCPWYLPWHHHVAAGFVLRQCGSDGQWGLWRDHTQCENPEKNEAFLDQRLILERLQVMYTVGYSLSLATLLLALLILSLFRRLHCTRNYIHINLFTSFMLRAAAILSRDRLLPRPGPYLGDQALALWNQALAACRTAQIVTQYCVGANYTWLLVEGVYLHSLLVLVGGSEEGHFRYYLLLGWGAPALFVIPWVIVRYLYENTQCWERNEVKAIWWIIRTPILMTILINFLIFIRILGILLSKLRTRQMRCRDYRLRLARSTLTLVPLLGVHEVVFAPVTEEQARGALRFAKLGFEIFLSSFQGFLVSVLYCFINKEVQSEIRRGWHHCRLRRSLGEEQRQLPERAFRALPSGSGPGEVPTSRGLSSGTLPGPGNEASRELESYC
Assay: FACS binding assay
Details: competition with 20 nM GIP-057, 4° C., 1 hour, read-out: pIC50 Category (converted)
In short: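 Median fluorescence in the APC channel, measured on washed CHO-K1 cells overexpressing human GIPR, was fitted by four-parameter logistic regression against peptide concentration to yield EC50 or IC50 values. Secondary labelling used APC-streptavidin (1 μg/mL, 30 min, ice).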

Row | IC50 [µM] | Compound
1 | < 0.01 | CC[C@H](C)[C@@H]1NC(=O)[C@H](CC(C)C)NC(=O)C2(CCOCC2)NC(=O)[C@@H](NC(=O)[C@@H](CC(C)C)NC(=O)[C@H](CCC(=O)O)NC(=O)[C@@H]2C[C@@H](O)CN2C(=O)[C@H](Cc2c[nH]c3ccc(Cl)cc23)NC(=O)[C@H](Cc2c[nH]c3ccccc23)NC(=O)[C@H](CS(=O)(=O)O)NC(C)=O)CSCc2cccc(n2)CSC[C@@H](C(N)=O)NC1=O [GIP-189, Ac-Cya-Trp-5Clw-Hyp-Glu-leu-[Cys(2Lut)-Thp-Leu-Ile-Cys]-NH2] (Ac-[Cya]W[Trp(5-Cl)][Hyp]E[dL]C[Thp]LIC-NH2; linker 7-11 via Pyridine(2,6-diCH2))
2 | < 0.01 | CC[C@H](C)[C@@H]1NC(=O)[C@H](CC(C)C)NC(=O)C2(CCOCC2)NC(=O)[C@@H](NC(=O)[C@@H](CC(C)C)NC(=O)[C@H](CCC(=O)O)NC(=O)[C@@H]2C[C@@H](O)CN2C(=O)[C@H](Cc2c[nH]c3ccc(Cl)cc23)NC(=O)[C@H](Cc2c[nH]c3ccccc23)NC(=O)[C@H](CC(N)=O)NC(C)=O)CSCc2cccc(n2)CSC[C@@H](C(N)=O)NC1=O [GIP-190, Ac-Asn-Trp-5Clw-Hyp-Glu-leu-[Cys(2Lut)-Thp-Leu-Ile-Cys]-NH2] (Ac-NW[Trp(5-Cl)][Hyp]E[dL]C[Thp]LIC-NH2; linker 7-11 via Pyridine(2,6-diCH2))
3 | < 0.01 | CC[C@H](C)[C@@H]1NC(=O)[C@H](CC(C)C)NC(=O)C2(CCOCC2)NC(=O)[C@@H](NC(=O)[C@@H](CC(C)C)NC(=O)[C@H](CCC(=O)O)NC(=O)[C@@H]2C[C@@H](O)CN2C(=O)[C@H](Cc2c[nH]c3ccc(Cl)cc23)NC(=O)[C@H](Cc2c[nH]c3ccccc23)NC(=O)[C@H](CCC(=O)O)NC(C)=O)CSCc2cccc(n2)CSC[C@@H](C(N)=O)NC1=O [GIP-191, Ac-Asn-Trp-5Clw-Hyp-Glu-leu-[Cys(2Lut)-Thp-Leu-Ile-Cys]-NH2] (Ac-EW[Trp(5-Cl)][Hyp]E[dL]C[Thp]LIC-NH2; linker 7-11 via Pyridine(2,6-diCH2))
4 | < 0.01 | CC[C@H](C)[C@@H]1NC(=O)[C@H](CC(C)C)NC(=O)C2(CCOCC2)NC(=O)[C@@H](NC(=O)[C@@H](CC(C)C)NC(=O)[C@H](CC(=O)O)NC(=O)[C@@H]2C[C@@H](O)CN2C(=O)[C@H](Cc2c[nH]c3ccc(Cl)cc23)NC(=O)[C@H](Cc2c[nH]c3ccccc23)NC(=O)[C@H](CC(=O)O)NC(C)=O)CSCc2cccc(n2)CSC[C@@H](C(N)=O)NC1=O [GIP-192, Ac-Asp-Trp-5Clw-Hyp-Asp-leu-[Cys(2Lut)-Thp-Leu-Ile-Cys]-NH2] (Ac-DW[Trp(5-Cl)][Hyp]D[dL]C[Thp]LIC-NH2; linker 7-11 via Pyridine(2,6-diCH2))
5 | < 0.01 | CC[C@H](C)[C@@H]1NC(=O)[C@H](CC(C)C)NC(=O)C2(CCOCC2)NC(=O)[C@@H](NC(=O)[C@@H](CC(C)C)NC(=O)[C@H](CCC(N)=O)NC(=O)[C@@H]2C[C@@H](O)CN2C(=O)[C@H](Cc2c[nH]c3ccc(Cl)cc23)NC(=O)[C@H](Cc2c[nH]c3ccccc23)NC(=O)[C@H](CC(=O)O)NC(C)=O)CSCc2cccc(n2)CSC[C@@H](C(N)=O)NC1=O [GIP-193, Ac-Asp-Trp-5Clw-Hyp-Gln-leu-[Cys(2Lut)-Thp-Leu-Ile-Cys]-NH2] (Ac-DW[Trp(5-Cl)][Hyp]Q[dL]C[Thp]LIC-NH2; linker 7-11 via Pyridine(2,6-diCH2))
6 | < 0.01 | CC[C@H](C)[C@@H]1NC(=O)[C@H](CC(C)C)NC(=O)C2(CCOCC2)NC(=O)[C@@H](NC(=O)[C@@H](CC(C)C)NC(=O)[C@H](CCC(=O)O)NC(=O)[C@@H]2C[C@@H](O)CN2C(=O)[C@H](Cc2c[nH]c3ccc(Cl)cc23)NC(=O)[C@H](Cc2c[nH]c3ccccc23)NC(=O)[C@H](CCO)NC(C)=O)CSCc2cccc(n2)CSC[C@@H](C(N)=O)NC1=O [GIP-195, Ac-Hse-Trp-5Clw-Hyp-Glu-leu-[Cys(2Lut)-Thp-Leu-Ile-Cys]-NH2] (Ac-[hSer]W[Trp(5-Cl)][Hyp]E[dL]C[Thp]LIC-NH2; linker 7-11 via Pyridine(2,6-diCH2))
